Measurements as given in patent US20180369219A1, “USING DABIGATRAN TO TREAT PANCREATITIS” (Mayo Foundation for Medical Education and Research, priority 2017, published 2018).

Legend:
[1] = test system: human having pancreatitis; experiment: Treating a human identified as having pancreatitis (Example 2); type: in vivo; details: 112 mg dabigatran or 150 mg dabigatran etexilate at least twice a day for one to three weeks
Experimental: A human identified as having pancreatitis is administered 112 mg of dabigatran or 150 mg of dabigatran etexilate at least twice a day for one to three weeks.

PRSS1R122H mice [2] = experiment: Therapeutic administration after AP induction in PRSS1R122H mice, progression to chronic pancreatitis; type: in vivo, mouse; details: administered four hours after AP induction by caerulein, treated for additional five days, Dabigatran 200 mg/kg Bid, Camostat 300 mg/kg Bid
Experimental: (§1) The secretagogue overstimulation model of experimental pancreatitis with caerulein, is a commonly used AP model (Zhan et al., Gastrointestinal Liver Physiology, 311:G343-55 (2016)). This model was accomplished by repeated intraperitoneal (ip) injections of caerulein (100 μg/kg/hour) once per hour (Huang et al., Gastroenterology, 144:202-10 (2013)).
A model of human hereditary pancreatitis (HP) was developed by using a bacterial artificial chromosome (BAC, clone RP11-701D14) harboring the full-length human PRSS1 gene containing an intact PRSS1 promoter, all exons and introns, and the 3′ untranslated region for faithful recapitulation of the gene's expression. An R122H point mutation was introduced by two rounds of genetic targeting using Galk-mediated recombineering (PRSS1^R122H) (Warming et al., Nucleic Acids Research, 33:e36 (2005)). This transgene expressed PRSS1^R122H at ˜50% of the endogenous human PRSS1 protein level as detected by Western blot (WB) and real-time RT-PCR. […]
(§2) Pancreas edema, serum amylase, and histology were evaluated as described elsewhere (Gaiser et al., Gut, 60:1379-88 (2011); Huang et al., Gastroenterology, 144:202-10 (2013); and Daniluk et al., J. Clin. Invest., 122:1519-28 (2012)). […]

mutant trypsinogen mice = experiment: Prevention of pancreatitis in mouse model expressing active trypsin (PACE-trypsinogen); type: in vivo; details: pretreated two hours prior to caerulein and seven hours after final caerulein injection, Dabigatran 200 mg/kg×2, Camostat 300 mg/kg×2, Ximelagatran 40 mg/kg×2
Experimental: as §1
A PACE-activated trypsinogen model in which the original enteropeptidase cleavage site (DDDDK) was replaced by a PACE cleavage site (RTKR), using site-specific mutagenesis of the wild type rat trypsinogen cDNA, was produced (Ji et al., J. Biol. Chem., 284:17488-98 (2009)). PACE, paired basic amino acid cleaving enzyme (also called furin), is a mammalian propeptide-processing endoprotease that is present in the trans-Golgi network of virtually all cells. To target expression of PACE-trypsinogen specifically to pancreatic acinar cells, conditional LGL (loxP-GFP-stop-loxP)-PACE-trypsinogen transgenic mice were bred with full-length, acinar specific, elastase promoter-regulated Cre transgenic mice. […]
as §2

PRSS1R122H mice [3] = experiment: Prevention of caerulein-induced pancreatitis in mouse model of human hereditary pancreatitis (PRSS1R122H); type: in vivo; details: Dabigatran 200 mg/kg×2, Camostat 300 mg/kg×2
Experimental: as §1
A model of human hereditary pancreatitis (HP) was developed by using a bacterial artificial chromosome (BAC, clone RP11-701D14) harboring the full-length human PRSS1 gene containing an intact PRSS1 promoter, all exons and introns, and the 3′ untranslated region for faithful recapitulation of the gene's expression. An R122H point mutation was introduced by two rounds of genetic targeting using Galk-mediated recombineering (PRSS1^R122H) (Warming et al., Nucleic Acids Research, 33:e36 (2005)). This transgene expressed PRSS1^R122H at ˜50% of the endogenous human PRSS1 protein level as detected by Western blot (WB) and real-time RT-PCR. Taking into account that the PRSS1^R122H mutation was heterozygous, and that mutated PRSS1 constituted 50% of the total PRSS1 in human HP, this model does expressPRSS1^R122H at a physiologically relevant level. In this mouse model, spontaneous AP and CP were not observed. However, these mice developed more severe AP following the induction of AP with caerulein injection. More importantly, all of the PRSS1^R122H mice, but none of the WT mice, developed CP with an observed histopathology similar to that seen in human HP (Singhi et al., Am. J. Surg. Path., 38:346-53 (2014)). Therefore, this model faithfully recapitulates the histological changes observed during human HP (Singhi et al., Am. J. Surg. Path., 38:346-53 (2014)). […]
as §2

WT mice = experiment: Prevention of caerulein-induced acute pancreatitis in WT mice; type: in vivo, mouse; details: evaluated 24 h after first caerulein dose, Dabigatran 200 mg/kg×2, Camostat 300 mg/kg×2
Experimental: as §1
Camostat mesilate (Santa Cruz), Dabigatran etexilate mesylate (a prodrug for Dabigatran, TRC Canada), and Ximelagatran (a prodrug for Melagatran, Sigma-Aldrich) were dissolved in 10% β-Cyclodextrin (Sigma-Aldrich). […]
Pancreas edema, serum amylase, and histology were evaluated as described elsewhere (Gaiser et al., Gut, 60:1379-88 (2011); Huang et al., Gastroenterology, 144:202-10 (2013); and Daniluk et al., J. Clin. Invest., 122:1519-28 (2012)).
The effect of Dabigatran on experimental pancreatitis in WT mice was evaluated. Dabigatran and Camostat were administrated by oral gavage two hours before the initiation of AP by six hourly injections of caerulein (FIG. 1A). Twenty-four hours after the first dose of caerulein, the severity of pancreatitis was evaluated.

Row | SMILES | severity of the pancreatitis [1] | progression of AP to CP (pancreas/body weight ratio, histology) (PRSS1R122H mice [2]) | development of severe AP (pancreas edema, serum amylase) (mutant trypsinogen mice) | pancreatic edema (pancreas/body weight ratio) (PRSS1R122H mice [3]; pretreatment before caerulein (100 μg/kg×6)) | pancreatic histology (PRSS1R122H mice [3]; pretreatment before caerulein) | serum amylase levels (PRSS1R122H mice [3]; pretreatment before caerulein) | pancreatic edema (pancreas/body weight ratio) (WT mice; oral gavage two hours before six hourly caerulein injections (100 μg/kg×6)) | serum amylase levels (WT mice; oral gavage two hours before six hourly caerulein injections)
1 | CCCCCCOC(=O)N=C(N)c1ccc(NCc2nc3cc(C(=O)N(CCC(=O)OCC)c4ccccn4)ccc3n2C)cc1 [dabigatran etexilate] | reduction in the severity of the pancreatitis | – | – | – | – | – | – | –
2 | CN(C)C(=O)COC(=O)Cc1ccc(OC(=O)c2ccc(NC(=N)N)cc2)cc1 [Camostat, Camostat mesilate] | – | no positive effects on preventing the development of CP | no ability to prevent the development of severe AP | only slightly improved | only slightly improved | only slightly improved | moderately reduce | no significant effect
